Series [1] in a line: Paramagnetic relaxation properties in human plasma at 37°C. It is filed as physicochemical. As to conditions: for T₂ value / T₁ value / R₁ / R₂ / T₁ changed by (repeat measurement) / T₂ changed by (repeat measurement): 37°C; for T₁ value: triplicate; for T₁ changed by (repeat measurement) / T₂ changed by (repeat measurement): repeat measurement 80 minutes later; for T₂ relaxivity in plasma, fold greater than GdDTPA: versus GdDTPA; for T₁ relaxivity in plasma, fold greater than GdDTPA: versus gadolinium diethylenetriaminepentaacetic acid chelate (GdDTPA).

A short description of series [2]: Paramagnetic relaxation properties in water at 10 MHz (0.15T), RADX spin analyzer. The class given is physicochemical. As to conditions: for spin-lattice (T₁) relaxation value / spin-spin (T₂) relaxation value / millimolar relaxivity for T₁ / millimolar relaxivity for T₂ / Relaxivity (mM⁻¹sec⁻¹) Spin-Lattice / Relaxivity (mM⁻¹sec⁻¹) Spin-Spin: 10 MHz (0.15T); for millimolar relaxivity for T₁ / millimolar relaxivity for T₂: in water; for millimolar relaxivity for T₁: calculated from T₁ and concentration; for millimolar relaxivity for T₂: calculated from T₂ and concentration; for Spin-Spin Relaxivity: 0.15 T (10 MHz). The protocol:
The paramagnetic relaxation properties of [manganese(II)·(H₂O)₂·(L-alanine)₂]⁺²(Cl₂)⁻² in water were measured at 10 MHz (0.15T) with a spin analyzer (RADX; Houston, TX) at 37°C. After thermal equilibrium, the spin-lattice (T₁) and spin-spin (T₂) relaxation values were measured in triplicate.
The paramagnetic relaxation of the title compound in water was measured at 10 MHz (0.15T) with a spin analyzer (RADX; Houston, TX). After thermal equilibrium, the spin-lattice (T₁) and spin-spin (T₂) relaxation values were measured.
Relaxivity was measured at 10 MHz (0.15T) as described in Example 10.
The relaxivity of the title compound was performed at 0.15 T (10 MHz) with a RADX Spin Analyzer (Houston, TX) at 37°C.

The mark [3] stands for this setting: 0.94 mM solution in water, 37°C, triplicate, mean +/- SD.
Where [4] appears, read: 0.90 mM solution in water, 37°C, triplicate, mean +/- SD.
Setting [5] is: 0.97 mM solution in water, 37°C, triplicate, mean +/- SD.
Setting [6] is: 0.98 mM solution in water, 37°C, triplicate, mean +/- SD.

The values below come from patent EP0308983A2, “NMR imaging with Mn(II) coordination compositions” (priority 1987, dated 1989).

As to `NC(=O)C[C@H]([NH3+])C(=O)[O-].NC(=O)C[C@H]([NH3+])C(=O)[O-].O.O.[Cl-].[Cl-].[Mn+2]` [Manganese(II)·(H₂O)₂·(L-asparginine)₂]⁺²(Cl₂)⁻²], in series [1] (90 µM final concentration), the T₂ value amounted to 190 ± 3 ms and the T₁ value turned out to be 244 ± 20 ms. Besides, in series [1], the R₁ is 45.5 mM⁻¹ s⁻¹, the R₂ came to 58.5 mM⁻¹ s⁻¹, the “T₁ changed by (repeat measurement)” value is listed as 7% and the “T₂ changed by (repeat measurement)” value was determined as 2%. Moreover, in series [1], the “T₂ relaxivity in plasma, fold greater than GdDTPA” value was 12.2 fold and the “T₁ relaxivity in plasma, fold greater than GdDTPA” value came to 9.5 fold. In addition, in series [2] (setting [3]), the “spin-lattice (T₁) relaxation value” was 117 ± 5 ms and the “spin-spin (T₂) relaxation value” was 29 ± 1 ms. Besides, in series [2], the “millimolar relaxivity for T₁” value is 9.09 mM⁻¹ s⁻¹ and the “millimolar relaxivity for T₂” value was 36.7 mM⁻¹ s⁻¹.

Regarding `N[C@@H](CC(=O)O)C(=O)O.N[C@@H](CC(=O)O)C(=O)O.O.O.[Cl-].[Cl-].[Mn+2]` [Manganese(II)·(H₂O)₂·(L-aspartic acid)₂]⁺²(Cl₂)⁻²], in series [1] (86 µM final concentration), the T₂ value was found to be 190 ± 12 ms and the T₁ value came to 251 ± 12 ms. In series [1], the R₁ was 46.3 mM⁻¹ s⁻¹, the R₂ is 61.2 mM⁻¹ s⁻¹, the “T₁ changed by (repeat measurement)” value is “did not change” and the “T₂ changed by (repeat measurement)” value amounted to 3%. Besides, in series [1], the “T₂ relaxivity in plasma, fold greater than GdDTPA” value was determined as 12.8 fold and the “T₁ relaxivity in plasma, fold greater than GdDTPA” value is given as 9.7 fold. Besides, in series [2] (setting [4]), the “spin-lattice (T₁) relaxation value” was 116 ± 3 ms and the “spin-spin (T₂) relaxation value” worked out at 28 ± 1 ms. In series [2], the “millimolar relaxivity for T₁” value is 9.58 mM⁻¹ s⁻¹ and the “millimolar relaxivity for T₂” value is 39.7 mM⁻¹ s⁻¹.

For the molecule `N[C@@H](CS)C(=O)O.N[C@@H](CS)C(=O)O.O.O.[Cl-].[Cl-].[Mn+2]` [Manganese(II)·(H₂O)₂·(L-cysteine)₂]⁺²(Cl₂)⁻²], in series [1] (92 µM final concentration), the T₂ value amounted to 190 ± 17 ms and the T₁ value came to 247 ± 14 ms. For the same molecule, in series [1], the R₁ worked out at 44.0 mM⁻¹ s⁻¹, the R₂ stood at 57.2 mM⁻¹ s⁻¹, the “T₁ changed by (repeat measurement)” value was determined as 4% and the “T₂ changed by (repeat measurement)” value is reported as 1%. Besides, in series [1], the “T₂ relaxivity in plasma, fold greater than GdDTPA” value worked out at 11.9 fold and the “T₁ relaxivity in plasma, fold greater than GdDTPA” value came to 9.2 fold. In series [2] (setting [5]), the “spin-lattice (T₁) relaxation value” is 105 ± 4 ms and the “spin-spin (T₂) relaxation value” amounted to 25 ± 1 ms. For the same molecule, in series [2], the “millimolar relaxivity for T₁” value was 9.82 mM⁻¹ s⁻¹ and the “millimolar relaxivity for T₂” value was 41.2 mM⁻¹ s⁻¹.

In the case of `NCCCC[C@H](N)C(=O)O.NCCCC[C@H](N)C(=O)O.O.O.[Cl-].[Cl-].[Mn+2]` [Manganese(II)·(H₂O)₂·(L-lysine)₂]⁺²(Cl₂)⁻²], in series [1] (92 µM final concentration), the T₂ value was determined as 192 ± 8 ms and the T₁ value worked out at 230 ± 9 ms. In series [1], the R₁ was 47.3 mM⁻¹ s⁻¹, the R₂ is 56.6 mM⁻¹ s⁻¹, the “T₁ changed by (repeat measurement)” value was found to be 3% and the “T₂ changed by (repeat measurement)” value amounted to 3%. In addition, in series [1], the “T₂ relaxivity in plasma, fold greater than GdDTPA” value is reported as 11.8 fold and the “T₁ relaxivity in plasma, fold greater than GdDTPA” value is recorded as 9.9 fold. In addition, in series [2] (setting [5]), the “spin-lattice (T₁) relaxation value” was determined as 108 ± 9 ms and the “spin-spin (T₂) relaxation value” was determined as 26 ± 1 ms. In addition, in series [2], the “millimolar relaxivity for T₁” value was 9.55 mM⁻¹ s⁻¹ and the “millimolar relaxivity for T₂” value was 39.7 mM⁻¹ s⁻¹.

In series [1] (92 µM final concentration), `CSCC[C@H](N)C(=O)O.CSCC[C@H](N)C(=O)O.O.O.[Cl-].[Cl-].[Mn+2]` [Manganese(II)·(H₂O)₂·(L-methionine)₂]⁺²(Cl₂)⁻²] gave a T₂ value of 202 ± 9 ms and a T₁ value of 257 ± 18 ms. For the same molecule, in series [1], the R₁ was determined as 42.3 mM⁻¹ s⁻¹, the R₂ worked out at 52.8 mM⁻¹ s⁻¹, the “T₁ changed by (repeat measurement)” value is reported as 1% and the “T₂ changed by (repeat measurement)” value turned out to be 5%. For the same molecule, in series [1], the “T₂ relaxivity in plasma, fold greater than GdDTPA” value is recorded as 11.2 fold and the “T₁ relaxivity in plasma, fold greater than GdDTPA” value is 8.8 fold. For the same molecule, in series [2] (setting [5]), the “spin-lattice (T₁) relaxation value” was found to be 106 ± 2 ms and the “spin-spin (T₂) relaxation value” was 27 ± 1 ms. For the same molecule, in series [2], the “millimolar relaxivity for T₁” value was 9.73 mM⁻¹ s⁻¹ and the “millimolar relaxivity for T₂” value was 38.2 mM⁻¹ s⁻¹.

In series [1] (93 µM final concentration), `O.O.O=C(O)[C@@H]1CCCN1.O=C(O)[C@@H]1CCCN1.[Cl-].[Cl-].[Mn+2]` [Manganese(II)·(H₂O)₂·(L-proline)₂]⁺²(Cl₂)⁻²] returned a T₂ value of 202 ± 12 ms and a T₁ value of 234 ± 12 ms. In series [1], the R₁ amounted to 46.5 mM⁻¹ s⁻¹, the R₂ stood at 53.2 mM⁻¹ s⁻¹, the “T₁ changed by (repeat measurement)” value is listed as 5% and the “T₂ changed by (repeat measurement)” value was 12%. In series [1], the “T₂ relaxivity in plasma, fold greater than GdDTPA” value is given as 11.1 fold and the “T₁ relaxivity in plasma, fold greater than GdDTPA” value turned out to be 9.7 fold. In addition, in series [2] (setting [6]), the “spin-lattice (T₁) relaxation value” was found to be 106 ± 4 ms and the “spin-spin (T₂) relaxation value” is 26 ± 2 ms. Moreover, in series [2], the “millimolar relaxivity for T₁” value was 9.63 mM⁻¹ s⁻¹ and the “millimolar relaxivity for T₂” value was 39.3 mM⁻¹ s⁻¹.

For the molecule `C[NH2+]CC(=O)[O-].C[NH2+]CC(=O)[O-].O.O.[Cl-].[Cl-].[Mn+2]` [Manganese(II)·(H₂O)₂·(L-sarcosine)₂]⁺²(Cl₂)⁻²], in series [1] (93 µM final concentration), the T₂ value was determined as 194 ± 16 ms and the T₁ value was determined as 232 ± 2 ms. In series [1], the R₁ worked out at 46.4 mM⁻¹ s⁻¹, the R₂ came out at 55.4 mM⁻¹ s⁻¹, the “T₁ changed by (repeat measurement)” value is given as 6% and the “T₂ changed by (repeat measurement)” value is listed as 4%. Further, in series [1], the “T₂ relaxivity in plasma, fold greater than GdDTPA” value was 11.5 fold and the “T₁ relaxivity in plasma, fold greater than GdDTPA” value worked out at 9.7 fold. Moreover, in series [2] (setting [6]), the “spin-lattice (T₁) relaxation value” was found to be 111 ± 2 ms and the “spin-spin (T₂) relaxation value” amounted to 26 ± 1 ms. Moreover, in series [2], the “millimolar relaxivity for T₁” value is 9.19 mM⁻¹ s⁻¹ and the “millimolar relaxivity for T₂” value is 39.3 mM⁻¹ s⁻¹.

As for `NC(CO)C(=O)O.O.O.O.O=C([O-])C(O)C(O)C(O)C(O)CO.O=C([O-])C(O)C(O)C(O)C(O)CO.[Mn+2]` [[Manganese(II)(H₂O)₃-L-Serine]Digluconate], in series [2] (1 mM solution in water), the “spin-lattice (T₁) relaxation value” was found to be 107 ms and the “spin-spin (T₂) relaxation value” was 27 ms. In series [2], the “millimolar relaxivity for T₁” value is 9.35 mM⁻¹ s⁻¹ and the “millimolar relaxivity for T₂” value was 37.0 mM⁻¹ s⁻¹.

Consider `CC(=O)[O-].C[C@H](N)C(=O)O.C[C@H](N)C(=O)O.C[C@H](N)C(=O)O.O.[I-].[Mn+2]` [[Manganese(II)H₂O(L-Alanine)₃](Acetate Iodide)], for which, in series [2] (1 mM solution in water), the “spin-lattice (T₁) relaxation value” amounted to 104 ms and the “spin-spin (T₂) relaxation value” was found to be 26 ms. Also, in series [2], the “millimolar relaxivity for T₁” value is 9.62 mM⁻¹ s⁻¹ and the “millimolar relaxivity for T₂” value was 38.5 mM⁻¹ s⁻¹.

Turning to `CC(=O)[O-].CC(=O)[O-].NCC(=O)O.NCC(=O)O.NCC(=O)O.NCC(=O)O.[Mn+2]` [[Manganese(II)·(Glycine)₄]Diacetate], in series [2] (1 mM solution in water), the “Relaxivity (mM⁻¹sec⁻¹) Spin-Lattice” value was determined as 8.00 mM⁻¹ s⁻¹ and the “Relaxivity (mM⁻¹sec⁻¹) Spin-Spin” value was 33.3 mM⁻¹ s⁻¹.

As to `CC(=O)[O-].CC(=O)[O-].NCC(=O)O.NCC(=O)O.NCC(=O)O.O.[Mn+2]` [[Manganese(II)·(H₂O)·(Glycine)₃]Diacetate], in series [2] (1 mM solution in water), the “Relaxivity (mM⁻¹sec⁻¹) Spin-Lattice” value turned out to be 8.47 mM⁻¹ s⁻¹ and the “Relaxivity (mM⁻¹sec⁻¹) Spin-Spin” value was 33.3 mM⁻¹ s⁻¹.

For `CC(=O)[O-].CC(=O)[O-].NCC(=O)O.O.O.O.[Mn+2]` [[Manganese(II)·(H₂O)₃]·(Glycine)]Diacetate], in series [2] (1 mM solution in water), the “Relaxivity (mM⁻¹sec⁻¹) Spin-Lattice” value was 8.26 mM⁻¹ s⁻¹ and the “Relaxivity (mM⁻¹sec⁻¹) Spin-Spin” value worked out at 33.3 mM⁻¹ s⁻¹. The “Spin-Spin Relaxivity” value in series [2] (37°C) was found to be 33.30 mM⁻¹ s⁻¹.

As for `CC(=O)[O-].CC(=O)[O-].O.O.O.O.[Mn+2]` [[Manganese(II)·(H₂O)₄]Diacetate, reference compound], in series [2] (1 mM solution in water), the “Relaxivity (mM⁻¹sec⁻¹) Spin-Lattice” value is 9.09 mM⁻¹ s⁻¹ and the “Relaxivity (mM⁻¹sec⁻¹) Spin-Spin” value was found to be 33.3 mM⁻¹ s⁻¹. Further, the “Spin-Spin Relaxivity” value in series [2] (37°C) was found to be 33.30 mM⁻¹ s⁻¹.

For the molecule `NCC(=O)[O-].NCC(=O)[O-].O.O.O.O.O.O.O=S(=O)([O-])[O-].[Mn+2].[Mn+2]` [[Manganese(II)·CH₂(NH₂)COO-]₂⁺¹(SO₄^=), reference compound], the “Spin-Spin Relaxivity” value in series [2] (37°C) stood at 2.92 mM⁻¹ s⁻¹.

As for `NCC(=O)O.N[C@@H](CO)C(=O)O.N[C@@H](Cc1c[nH]cn1)C(=O)O.O=C(O)[C@@H]1CCCN1.O=S(=O)([O-])[O-].[Mn+2]` [[Manganese(II)·Glycine·L-Serine·L-Histidine·L-Proline](Sulfate)], in series [2] (1 mM solution in water), the “spin-lattice (T₁) relaxation value” was 103 ms and the “spin-spin (T₂) relaxation value” was 28 ms. Also, in series [2], the “millimolar relaxivity for T₁” value is 9.71 mM⁻¹ s⁻¹ and the “millimolar relaxivity for T₂” value is 35.7 mM⁻¹ s⁻¹.

With “[Manganese(II)(H₂O)₂(L-serine)₂](Glycerophosphate)”, in series [2] (1 mM solution in water), the “spin-lattice (T₁) relaxation value” amounted to 147 ms and the “spin-spin (T₂) relaxation value” worked out at 54 ms. Moreover, in series [2], the “millimolar relaxivity for T₁” value was 6.80 mM⁻¹ s⁻¹ and the “millimolar relaxivity for T₂” value is 18.5 mM⁻¹ s⁻¹.
